Test results published in patent US10392368B2, “Pyrazolo and triazolo bicyclic compounds as JAK kinase inhibitors” (THERAVANCE BIOPHARMA R&D IP, LLC, priority 2017, dated 2019).

How the values were obtained:
JAK1 = biological target: T1, JAK1 (Homo sapiens, UniProt P23458); assay: Biochemical JAK1 kinase assay (LanthaScreen)
T1 construct: GST; purchased Life Technologies
How it was run: (§1)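 TR-FRET readout (520/495 nm) using Tb-labelled pTyr701 antibody after EDTA stop, following 1 h ATP-started phosphorylation of GFP-STAT1 by recombinant GST-JAK. Compounds preincubated 1 h with enzyme and substrate; pIC50 from 4-parameter fit, Cheng-Prusoff gives pKi.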

JAK2 = biological target: T2, JAK2 (Homo sapiens, UniProt O60674); assay: Biochemical JAK2 kinase assay (LanthaScreen)
T2 construct: GST; purchased Life Technologies
T2 sequence (O60674 whole entry): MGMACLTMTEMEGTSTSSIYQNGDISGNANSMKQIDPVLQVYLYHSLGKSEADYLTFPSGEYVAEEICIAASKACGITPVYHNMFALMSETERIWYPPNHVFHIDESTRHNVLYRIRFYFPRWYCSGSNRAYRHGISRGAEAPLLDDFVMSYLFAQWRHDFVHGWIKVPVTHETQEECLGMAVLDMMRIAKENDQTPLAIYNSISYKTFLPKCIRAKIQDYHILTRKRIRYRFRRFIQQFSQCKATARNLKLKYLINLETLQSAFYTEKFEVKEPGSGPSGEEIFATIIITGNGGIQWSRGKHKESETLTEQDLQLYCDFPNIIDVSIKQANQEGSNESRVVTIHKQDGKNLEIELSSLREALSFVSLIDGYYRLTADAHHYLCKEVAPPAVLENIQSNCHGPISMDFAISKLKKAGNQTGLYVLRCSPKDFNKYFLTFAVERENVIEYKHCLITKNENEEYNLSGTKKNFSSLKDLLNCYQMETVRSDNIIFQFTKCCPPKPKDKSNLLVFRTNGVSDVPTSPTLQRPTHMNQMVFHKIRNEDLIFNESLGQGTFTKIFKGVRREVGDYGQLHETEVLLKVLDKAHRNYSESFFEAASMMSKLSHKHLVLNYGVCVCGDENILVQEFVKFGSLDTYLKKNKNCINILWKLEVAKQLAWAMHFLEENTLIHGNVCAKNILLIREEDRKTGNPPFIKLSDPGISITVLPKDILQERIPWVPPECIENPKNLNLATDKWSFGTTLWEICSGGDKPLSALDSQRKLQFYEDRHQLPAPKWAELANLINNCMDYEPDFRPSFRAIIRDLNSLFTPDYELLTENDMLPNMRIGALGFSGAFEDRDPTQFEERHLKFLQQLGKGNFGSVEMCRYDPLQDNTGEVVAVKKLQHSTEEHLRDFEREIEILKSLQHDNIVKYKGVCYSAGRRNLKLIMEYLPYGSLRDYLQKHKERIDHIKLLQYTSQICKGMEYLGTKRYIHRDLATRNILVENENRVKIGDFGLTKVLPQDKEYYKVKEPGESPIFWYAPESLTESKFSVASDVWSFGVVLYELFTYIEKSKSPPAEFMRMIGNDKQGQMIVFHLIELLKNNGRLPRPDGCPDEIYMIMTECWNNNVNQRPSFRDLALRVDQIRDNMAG
How it was run: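 pKi values derive from pIC50 via Cheng-Prusoff, with IC50 from a 4-parameter fit of percent-inhibition TR-FRET data using Tb-anti-pSTAT1 (pTyr701) detection. Compound, GST-JAK2 and GFP-STAT1 substrate were pre-incubated 1 h, then ATP started a 1 h ambient reaction (HEPES pH 7.5, 10 mM MgCl2, 1% DMSO).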

Tyk2 = biological target: T3, Tyk2 (Homo sapiens, UniProt P29597); assay: Biochemical Tyk2 kinase assay (LanthaScreen)
T3 construct: GST; purchased Life Technologies
T3 sequence (P29597 whole entry): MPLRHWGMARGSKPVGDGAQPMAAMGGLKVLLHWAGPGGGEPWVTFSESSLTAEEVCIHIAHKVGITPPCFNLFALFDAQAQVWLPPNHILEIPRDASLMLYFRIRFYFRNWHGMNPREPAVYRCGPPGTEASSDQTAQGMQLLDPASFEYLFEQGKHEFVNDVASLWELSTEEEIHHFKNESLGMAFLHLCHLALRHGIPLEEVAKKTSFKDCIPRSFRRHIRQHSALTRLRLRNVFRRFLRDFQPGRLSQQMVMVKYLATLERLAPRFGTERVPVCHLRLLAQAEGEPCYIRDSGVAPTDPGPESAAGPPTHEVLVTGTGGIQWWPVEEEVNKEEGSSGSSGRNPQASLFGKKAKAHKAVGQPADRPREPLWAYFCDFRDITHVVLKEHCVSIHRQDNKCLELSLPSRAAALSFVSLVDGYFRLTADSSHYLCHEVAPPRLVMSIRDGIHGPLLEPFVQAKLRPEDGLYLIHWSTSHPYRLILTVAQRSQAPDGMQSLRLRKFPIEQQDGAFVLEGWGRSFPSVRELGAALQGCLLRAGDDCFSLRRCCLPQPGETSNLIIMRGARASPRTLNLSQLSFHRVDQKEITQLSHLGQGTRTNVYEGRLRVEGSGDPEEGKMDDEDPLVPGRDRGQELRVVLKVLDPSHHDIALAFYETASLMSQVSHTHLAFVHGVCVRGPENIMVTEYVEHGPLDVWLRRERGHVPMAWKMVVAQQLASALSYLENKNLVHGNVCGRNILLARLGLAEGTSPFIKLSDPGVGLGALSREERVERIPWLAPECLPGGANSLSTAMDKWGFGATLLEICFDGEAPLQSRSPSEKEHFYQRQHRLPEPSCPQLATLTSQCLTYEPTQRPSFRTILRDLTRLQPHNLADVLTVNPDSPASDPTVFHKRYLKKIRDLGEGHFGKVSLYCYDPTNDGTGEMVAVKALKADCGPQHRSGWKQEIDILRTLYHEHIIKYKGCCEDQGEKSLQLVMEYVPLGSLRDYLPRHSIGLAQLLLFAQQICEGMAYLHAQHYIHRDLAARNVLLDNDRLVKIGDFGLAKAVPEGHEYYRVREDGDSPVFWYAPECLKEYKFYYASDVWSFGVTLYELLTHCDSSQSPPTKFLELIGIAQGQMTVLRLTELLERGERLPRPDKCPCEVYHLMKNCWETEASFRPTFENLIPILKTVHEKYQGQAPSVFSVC
How it was run: as §1

[1] = tested on: IL-2 stimulated pSTAT5 in Tall-1 T cells; assay: Cellular JAK3 potency assay: inhibition of IL-2 stimulated pSTAT5 in Tall-1 T cells; type: cell-based, human; settings: IL-2 stimulated pSTAT5, Tall-1 T cells
How it was run: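 Tall-1 human T cells were preincubated with compound for 1 h at 37° C, then stimulated with IL-2 (300 ng/ml final) for 30 min. STAT5 phosphorylation in lysates was read by AlphaLisa bead emission, and IC50 from inhibition curves is given as pIC50 (mean±SD).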

JAK3 = biological target: T4, JAK3 (Homo sapiens, UniProt P52333); assay: Biochemical JAK3 kinase assay (LanthaScreen); parameters: GST; purchased Life Technologies; settings: for JAK3 (pKi)-JAK1 (pKi): selectivity JAK3 over JAK1, difference of pKi
T4 sequence (P52333 1-1124): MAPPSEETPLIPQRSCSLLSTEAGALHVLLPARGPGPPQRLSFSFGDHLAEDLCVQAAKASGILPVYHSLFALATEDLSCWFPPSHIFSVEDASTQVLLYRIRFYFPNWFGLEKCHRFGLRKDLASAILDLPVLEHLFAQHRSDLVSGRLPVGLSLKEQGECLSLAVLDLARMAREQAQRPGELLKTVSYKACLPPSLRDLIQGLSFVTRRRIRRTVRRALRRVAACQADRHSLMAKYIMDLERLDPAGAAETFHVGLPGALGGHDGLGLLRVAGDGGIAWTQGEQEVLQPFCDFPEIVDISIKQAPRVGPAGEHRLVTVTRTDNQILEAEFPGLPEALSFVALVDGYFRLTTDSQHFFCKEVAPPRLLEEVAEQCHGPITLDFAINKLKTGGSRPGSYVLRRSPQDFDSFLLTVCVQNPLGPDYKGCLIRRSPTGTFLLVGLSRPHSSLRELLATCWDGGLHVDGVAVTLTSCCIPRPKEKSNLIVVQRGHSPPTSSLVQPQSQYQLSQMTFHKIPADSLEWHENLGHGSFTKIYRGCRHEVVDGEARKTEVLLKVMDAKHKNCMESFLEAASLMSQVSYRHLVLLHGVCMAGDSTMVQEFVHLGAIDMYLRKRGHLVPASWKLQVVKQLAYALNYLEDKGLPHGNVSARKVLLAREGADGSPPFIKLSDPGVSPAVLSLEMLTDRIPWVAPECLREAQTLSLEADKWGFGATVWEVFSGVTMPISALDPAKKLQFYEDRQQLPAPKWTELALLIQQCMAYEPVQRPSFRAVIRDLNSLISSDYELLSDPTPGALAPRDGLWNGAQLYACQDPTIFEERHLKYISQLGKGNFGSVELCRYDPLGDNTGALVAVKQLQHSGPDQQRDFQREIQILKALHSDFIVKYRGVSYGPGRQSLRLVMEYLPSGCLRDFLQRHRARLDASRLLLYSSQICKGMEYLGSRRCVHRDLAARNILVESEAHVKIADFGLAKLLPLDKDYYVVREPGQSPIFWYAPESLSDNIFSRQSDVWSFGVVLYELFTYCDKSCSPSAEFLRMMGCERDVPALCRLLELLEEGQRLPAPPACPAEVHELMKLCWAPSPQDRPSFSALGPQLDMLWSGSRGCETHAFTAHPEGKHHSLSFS
How it was run: as §1

T1 sequence (P23458 whole entry): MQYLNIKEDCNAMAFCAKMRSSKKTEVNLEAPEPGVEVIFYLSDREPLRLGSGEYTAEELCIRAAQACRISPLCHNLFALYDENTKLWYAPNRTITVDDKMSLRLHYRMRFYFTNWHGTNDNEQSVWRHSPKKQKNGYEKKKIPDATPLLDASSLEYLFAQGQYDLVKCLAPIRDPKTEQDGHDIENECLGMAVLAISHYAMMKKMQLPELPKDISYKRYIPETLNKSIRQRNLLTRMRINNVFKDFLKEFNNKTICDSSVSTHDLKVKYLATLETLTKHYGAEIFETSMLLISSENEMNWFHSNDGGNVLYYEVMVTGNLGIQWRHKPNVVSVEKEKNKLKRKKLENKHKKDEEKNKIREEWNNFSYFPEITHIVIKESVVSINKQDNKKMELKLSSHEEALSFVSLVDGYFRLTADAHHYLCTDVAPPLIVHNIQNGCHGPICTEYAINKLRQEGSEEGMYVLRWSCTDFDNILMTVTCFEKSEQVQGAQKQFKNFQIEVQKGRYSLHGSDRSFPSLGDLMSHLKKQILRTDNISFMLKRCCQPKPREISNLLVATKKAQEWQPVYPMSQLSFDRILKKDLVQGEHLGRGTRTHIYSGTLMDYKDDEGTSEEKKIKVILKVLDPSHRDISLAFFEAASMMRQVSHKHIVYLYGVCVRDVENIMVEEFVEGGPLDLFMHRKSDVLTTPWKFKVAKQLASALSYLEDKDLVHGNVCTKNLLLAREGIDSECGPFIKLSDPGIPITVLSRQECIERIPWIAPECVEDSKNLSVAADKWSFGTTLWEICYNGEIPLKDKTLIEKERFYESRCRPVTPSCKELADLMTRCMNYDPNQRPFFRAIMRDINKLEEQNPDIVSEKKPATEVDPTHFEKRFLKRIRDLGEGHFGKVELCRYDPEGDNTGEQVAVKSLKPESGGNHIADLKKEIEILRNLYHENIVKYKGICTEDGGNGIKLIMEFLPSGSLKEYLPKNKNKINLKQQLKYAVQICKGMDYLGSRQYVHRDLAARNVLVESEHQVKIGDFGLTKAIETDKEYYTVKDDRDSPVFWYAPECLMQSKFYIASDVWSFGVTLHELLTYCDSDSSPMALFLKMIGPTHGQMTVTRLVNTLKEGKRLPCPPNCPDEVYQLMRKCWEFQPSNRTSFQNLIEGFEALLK

Row | Structure (SMILES) | JAK 1 (pKi) (JAK1) | JAK 2 (pKi) (JAK2) | Tyk 2 (pKi) (Tyk2) | Tall-1 (pIC50) [1] | JAK 3 (pKi) (JAK3) | JAK3 (pKi)-JAK1 (pKi) (JAK3)
1 | CN(C)C/C=C/C(=O)N1CC(CSc2cc(-c3ccc(O)c(F)c3)cc3[nH]ncc23)C1 [Compound 13-5] | E (a pKi value of 7 or below (Ki of 100 nM or above)) | D (a pKi value between 7 and 8 (Ki between 100 nM and 10 nM)) | E (a pKi value of 7 or below (Ki of 100 nM or above)) | B (a pIC50 value between 6.7 (included) and 7.5 (IC50 between 200 nM and 32 nM)) | A (a pKi value≥10 (Ki≤0.1 nM)) | A (a value of 3 or above)
2 | CN(C)C/C=C/C(=O)N1CC(CSc2cc(-c3ccc(O)c(Cl)c3)cc3[nH]ncc23)C1 [Compound 13-6] | E (a pKi value of 7 or below (Ki of 100 nM or above)) | E (a pKi value of 7 or below (Ki of 100 nM or above)) | E (a pKi value of 7 or below (Ki of 100 nM or above)) | A (a pIC50 value≥7.5 (IC50≤32 nM)) | A (a pKi value≥10 (Ki≤0.1 nM)) | A (a value of 3 or above)
3 | C=CC(=O)N1CC(CSc2cc(-c3ccc(O)c(F)c3)cc3[nH]ncc23)C1 [Compound 13-7] | E (a pKi value of 7 or below (Ki of 100 nM or above)) | D (a pKi value between 7 and 8 (Ki between 100 nM and 10 nM)) | E (a pKi value of 7 or below (Ki of 100 nM or above)) | B (a pIC50 value between 6.7 (included) and 7.5 (IC50 between 200 nM and 32 nM)) | A (a pKi value≥10 (Ki≤0.1 nM)) | A (a value of 3 or above)
4 | C=CC(=O)N1CC(CSc2cc(-c3ccc(O)c(Cl)c3)cc3[nH]ncc23)C1 [Compound 13-8] | E (a pKi value of 7 or below (Ki of 100 nM or above)) | E (a pKi value of 7 or below (Ki of 100 nM or above)) | E (a pKi value of 7 or below (Ki of 100 nM or above)) | A (a pIC50 value≥7.5 (IC50≤32 nM)) | B (a pKi value between 9 and 10 (Ki between 1 nM and 0.1 nM)) | A (a value of 3 or above)
5 | C=CC(=O)N1CC(CSc2cc(-c3ccc(O)cc3)nc3[nH]ncc23)C1 [Compound 13-9] | E (a pKi value of 7 or below (Ki of 100 nM or above)) | E (a pKi value of 7 or below (Ki of 100 nM or above)) | E (a pKi value of 7 or below (Ki of 100 nM or above)) | B (a pIC50 value between 6.7 (included) and 7.5 (IC50 between 200 nM and 32 nM)) | B (a pKi value between 9 and 10 (Ki between 1 nM and 0.1 nM)) | A (a value of 3 or above)
6 | C=CC(=O)N1CC[C@@H](Oc2nc(-c3ccc(O)cc3)nc3[nH]ncc23)C[C@H]1C [Compound 13-10] | E (a pKi value of 7 or below (Ki of 100 nM or above)) | E (a pKi value of 7 or below (Ki of 100 nM or above)) | E (a pKi value of 7 or below (Ki of 100 nM or above)) | B (a pIC50 value between 6.7 (included) and 7.5 (IC50 between 200 nM and 32 nM)) | B (a pKi value between 9 and 10 (Ki between 1 nM and 0.1 nM)) | A (a value of 3 or above)
7 | C=CC(=O)N1CCC(Oc2cc(-c3ccc(O)cc3)nc3[nH]ncc23)CC1C (stereo not drawn) [Compound 13-11] | E (a pKi value of 7 or below (Ki of 100 nM or above)) | E (a pKi value of 7 or below (Ki of 100 nM or above)) | E (a pKi value of 7 or below (Ki of 100 nM or above)) | A (a pIC50 value≥7.5 (IC50≤32 nM)) | A (a pKi value≥10 (Ki≤0.1 nM)) | A (a value of 3 or above)
8 | C=CC(=O)N1CCC(Oc2cc(-c3ccc(O)cc3)nc3[nH]ncc23)CC1C (stereo not drawn) [Compound 13-12] | E (a pKi value of 7 or below (Ki of 100 nM or above)) | E (a pKi value of 7 or below (Ki of 100 nM or above)) | E (a pKi value of 7 or below (Ki of 100 nM or above)) | B (a pIC50 value between 6.7 (included) and 7.5 (IC50 between 200 nM and 32 nM)) | B (a pKi value between 9 and 10 (Ki between 1 nM and 0.1 nM)) | A (a value of 3 or above)
9 | C=CC(=O)N1CCC(Oc2cc(-c3ccc(O)cc3)nc3[nH]ncc23)CC1C (stereo not drawn) [Compound 13-13] | E (a pKi value of 7 or below (Ki of 100 nM or above)) | E (a pKi value of 7 or below (Ki of 100 nM or above)) | E (a pKi value of 7 or below (Ki of 100 nM or above)) | C (a pIC50 value between 6 and 6.7 (IC50 between 1 μM and 200 nM)) | B (a pKi value between 9 and 10 (Ki between 1 nM and 0.1 nM)) | A (a value of 3 or above)
10 | C=CC(=O)N1CCC(C)(Oc2cc(-c3ccc(O)cc3Cl)cc3[nH]ncc23)C1 (stereo not drawn) [Compound 13-14] | E (a pKi value of 7 or below (Ki of 100 nM or above)) | D (a pKi value between 7 and 8 (Ki between 100 nM and 10 nM)) | E (a pKi value of 7 or below (Ki of 100 nM or above)) | A (a pIC50 value≥7.5 (IC50≤32 nM)) | A (a pKi value≥10 (Ki≤0.1 nM)) | A (a value of 3 or above)
11 | C=CC(=O)N1CCC(C)(Oc2cc(-c3ccc(O)cc3)cc3[nH]ncc23)C1 (stereo not drawn) [Compound 13-15] | E (a pKi value of 7 or below (Ki of 100 nM or above)) | D (a pKi value between 7 and 8 (Ki between 100 nM and 10 nM)) | E (a pKi value of 7 or below (Ki of 100 nM or above)) | B (a pIC50 value between 6.7 (included) and 7.5 (IC50 between 200 nM and 32 nM)) | B (a pKi value between 9 and 10 (Ki between 1 nM and 0.1 nM)) | A (a value of 3 or above)
12 | C=CC(=O)N1CC2(CCC2Oc2nc(-c3ccc(O)cc3)nc3[nH]ncc23)C1 (stereo not drawn) [Compound 13-16] | E (a pKi value of 7 or below (Ki of 100 nM or above)) | E (a pKi value of 7 or below (Ki of 100 nM or above)) | E (a pKi value of 7 or below (Ki of 100 nM or above)) | B (a pIC50 value between 6.7 (included) and 7.5 (IC50 between 200 nM and 32 nM)) | B (a pKi value between 9 and 10 (Ki between 1 nM and 0.1 nM)) | A (a value of 3 or above)
13 | C=CC(=O)N1CCO[C@@H](C(=O)Nc2cc(-c3ccc(O)cc3)nc3[nH]ncc23)C1 [Compound 13-19] | E (a pKi value of 7 or below (Ki of 100 nM or above)) | E (a pKi value of 7 or below (Ki of 100 nM or above)) | E (a pKi value of 7 or below (Ki of 100 nM or above)) | B (a pIC50 value between 6.7 (included) and 7.5 (IC50 between 200 nM and 32 nM)) | A (a pKi value≥10 (Ki≤0.1 nM)) | A (a value of 3 or above)
14 | C=CC(=O)N1CCO[C@@H](C(=O)Nc2nc(-c3ccc(O)c(Cl)c3)cc3[nH]ncc23)C1 [Compound 13-20] | E (a pKi value of 7 or below (Ki of 100 nM or above)) | E (a pKi value of 7 or below (Ki of 100 nM or above)) | E (a pKi value of 7 or below (Ki of 100 nM or above)) | B (a pIC50 value between 6.7 (included) and 7.5 (IC50 between 200 nM and 32 nM)) | B (a pKi value between 9 and 10 (Ki between 1 nM and 0.1 nM)) | B (a value of 2.3 to 3)
